Assay results: patent publication US9040544B2, “2,5-substituted oxazolopyrimidine derivatives” (Sanofi, priority 2010, dated 2015)

These compounds were tested against T1, human Edg-1 receptor (Homo sapiens, UniProt P21453) (assay: GTP-γ-S assay using human Edg-1 receptors (scintillation proximity assay, CHO Flp-In cell membrane preparation)). Details: test compound at 10 μM; 10 μM S1P regarded as 100% activation; background-corrected; triplicate; read-out: % Activation (Edg-1 receptor activation in percent of the activation by 10 μM S1P).
T1 construct: expressed in transfected cells; host or cells: Flp-In-CHO cells, stably transfected; membrane preparation
Type: biochemical
From the text: A) GTP-γ-S assay using human Edg-1 receptors
In order to determine the Edg-1 receptor activation by the compounds of the invention, a GTP-γ-S (guanosine 5′-[thio]triphosphate) assay for G-protein coupled receptor binding based on the scintillation proximity assay principle was used, employing a cell membrane preparation from a CHO Flp-In cell line which constitutively overexpresses the human Edg-1 receptor.
(a) Cell line generation The Flp-In™ expression system (Invitrogen, cat. no. K6010-01) allows the generation of stable mammalian cell lines into which the gene of interest has been integrated through homologous recombination at a specific genomic location called Flp Recombination Target (FRT) site by means of a Flp recombinase encoded by the pOG44 expression plasmid. The integration of the pcDNA5/FRT expression construct into the Flp-In host cell line genome results in the transcription of the gene of interest. The stably transfected cells become hygromycin-resistant.
One day prior to transfection, 200 000 Flp-In-CHO cells were seeded in Ham F-12 medium (Invitrogen, cat. no. 31765) supplemented with 10% fetal calf serum (FCS; Perbio Science, cat. no. SH30068.03) in a 6-well plate and incubated at 37° C./5% CO2 overnight. Using the FuGENE® 6 transfection reagent (Roche, cat. no. 11988387001), cells were cotransfected with the Flp recombinase expression plasmid pOG44 and a modified plasmid additionally containing the edg-1 gene (accession no. NM_001400) termed as pcDNA5-FRT-TO_nFLAG_DEST-EDG-1 with a 9:1 ratio. To obtain the modified pcDNA5-FRT-TO_nFLAG_DEST plasmid, the Invitrogen plasmid pcDNA5/FRT/TO (Invitrogen, cat. no. V6520-20) was adapted to the Gateway® (Invitrogen) cloning system by inserting a Gateway cassette containing attR recombination sites flanking a ccdB gene and a chloramphenicol-resistance gene (Gateway conversion system, Invitrogen, cat. no. 11828-029). In addition a FLAG tag epitope was added before the 5′ att recombination site to allow recombinant expression of N-terminally FLAG-tagged proteins.
For the transfection of one well, 1.08 μg of pOG44 and 0.12 μg of pcDNA5-FRT-TO_nFLAG_DEST-EDG-1 were mixed to 100 μl of serum-free Ham F-12 medium containing 6 μl of FuGENE® 6 transfection reagent. After 20 min of incubation, the transfection reagent/DNA complex was distributed dropwise on the cells. The cells were incubated for 24 h at 37° C. Then the cells from 3 wells were transferred to a T75 flask (Greiner Cellstar®, cat. no. 658175) containing Ham F-12 medium supplemented with 10% of FCS but without antibiotic and were incubated another 24 h. 48 h after transfection, the medium was replaced by selection medium (Ham F-12 supplemented with 10% of FCS and 300 μg/ml of hygromycin B (Invitrogen, cat. no. 10687-010)). The medium was exchanged every 2 to 3 days until a resistant population of cells had grown. […] After 2 weeks of selection, the cells were transferred into T175 flasks (Greiner Cellstar®, cat. no. 660175) and cultivated for batch production. Cells were harvested from the culture flasks by short treatment (2 to 5 min) with Accutase (PAA, cat. no. L11-007), resuspended in selection medium (see above) and centrifuged at 200×g for 5 min. Cells were resuspended in a mixture of 90% of FCS and 10% of dimethylsulfoxide and stored frozen in liquid nitrogen.
A membrane preparation was obtained by standard methods from the afore-described CHO Flp-ln cell line constitutively overexpressing the human Edg-1 receptor. Briefly, the cryopreserved cells were taken in culture and grown until confluency in T175 cell culture flasks (Becton Dickinson, cat. no. 35 5001). […]

T1 sequence (P21453 whole entry): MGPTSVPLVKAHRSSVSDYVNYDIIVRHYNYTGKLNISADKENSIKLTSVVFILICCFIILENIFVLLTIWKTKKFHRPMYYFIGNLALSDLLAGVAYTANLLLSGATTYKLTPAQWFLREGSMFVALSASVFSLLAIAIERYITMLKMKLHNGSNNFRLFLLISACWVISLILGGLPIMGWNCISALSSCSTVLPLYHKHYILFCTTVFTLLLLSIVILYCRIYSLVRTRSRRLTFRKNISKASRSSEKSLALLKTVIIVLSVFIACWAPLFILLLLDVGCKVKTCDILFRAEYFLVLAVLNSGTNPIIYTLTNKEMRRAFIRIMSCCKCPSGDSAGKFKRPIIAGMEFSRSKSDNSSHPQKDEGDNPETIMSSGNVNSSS

Row | SMILES | activation at 10 µM
1 | Cc1cc(-c2nc3cnc(Oc4cccc(F)c4)nc3o2)cc(C(C)C)c1O [Example 12, 4-[5-(3-fluorophenoxy)-oxazolo[5,4-d]pyrimidin-2-yl]-2-isopropyl-6-methyl-phenol] | 112%
2 | Cc1cc(-c2nc3cnc(Oc4ccccc4F)nc3o2)cc(C)c1O [Example 2, 4-[5-(2-Fluoro-phenoxy)-oxazolo[5,4-d]pyrimidin-2-yl]-2,6-dimethyl-phenol] | 115%
3 | COc1c(C)cc(-c2nc3cnc(Oc4cccnc4)nc3o2)cc1C [Example 9, 2-(4-methoxy-3,5-dimethyl-phenyl)-5-(pyridin-3-yloxy)-oxazolo[5,4-d]pyrimidine] | 87%
4 | Cc1cc(S(C)(=O)=O)ccc1-c1nc2cnc(Oc3ccccc3F)nc2o1 [Example 14, 5-(2-fluorophenoxy)-2-(4-methanesulfonyl-2-methylphenyl)-oxazolo[5,4-d]pyrimidine] | 69%
5 | COc1c(C)cc(-c2nc3cnc(Oc4ccccc4)nc3o2)cc1C [Example 8, 2-(4-methoxy-3,5-dimethyl-phenyl)-5-phenoxy-oxazolo[5,4-d]pyrimidine] | 94%
6 | Cc1cc(-c2nc3cnc(Oc4cccnc4)nc3o2)cc(C)c1O [Example 11, 2,6-dimethyl-4-[5-(pyridin-3-yloxy)-oxazolo[5,4-d]pyrimidin-2-yl]-phenol] | 103%
7 | COc1c(C)cc(-c2nc3cnc(Oc4ccccc4F)nc3o2)cc1C [Example 1, 5-(2-Fluoro-phenoxy)-2-(4-methoxy-3,5-dimethyl-phenyl)-oxazolo[5,4-d]pyrimidine] | 102%

Results, then the compound that gave them:

Row | activation at 10 µM | SMILES
8 | 83% | Oc1ccc(-c2nc3cnc(Oc4ccccc4F)nc3o2)cc1 [Example 4, 4-[5-(2-fluoro-phenoxy)-oxazolo[5,4-d]pyrimidin-2-yl]-phenol]
9 | 42% | COc1ccc(-c2nc3cnc(Oc4ccccc4F)nc3o2)cc1C [Example 5, 5-(2-fluoro-phenoxy)-2-(4-methoxy-3-methyl-phenyl)-oxazolo[5,4-d]pyrimidine]
10 | 107% | Oc1ccc(-c2nc3cnc(Oc4ccccc4F)nc3o2)cc1C(F)(F)F [Example 10, 4-[5-(2-fluoro-phenoxy)-oxazolo[5,4-d]pyrimidin-2-yl]-2-trifluoromethyl-phenol]
11 | 115% | Cc1cc(-c2nc3cnc(Oc4ccccc4F)nc3o2)ccc1O [Example 7, 4-[5-(2-fluoro-phenoxy)-oxazolo[5,4-d]pyrimidin-2-yl]-2-methyl-phenol]
12 | 120% | Cc1cc(-c2nc3cnc(Oc4ccccc4F)nc3o2)ccc1S(C)(=O)=O [Example 13, 5-(2-fluorophenoxy)-2-(4-methanesulfonyl-3-methylphenyl)-oxazolo[5,4-d]pyrimidine]
13 | 87% | COc1ccc(-c2nc3cnc(Oc4ccccc4F)nc3o2)cc1C(F)(F)F [Example 6, 5-(2-fluoro-phenoxy)-2-(4-methoxy-3-trifluoromethyl-phenyl)-oxazolo[5,4-d]pyrimidine]
14 | 95% | COc1cccc(-c2nc3cnc(Oc4ccccc4F)nc3o2)c1 [Example 3, 5-(2-fluoro-phenoxy)-2-(3-methoxy-phenyl)-oxazolo[5,4-d]pyrimidine]
